Assay results as given in publication PMC5808360, “Neutral Porphyrin Derivative Exerts Anticancer Activity by Targeting Cellular Topoisomerase I (Top1) and Promotes Apoptotic Cell Death without Stabilizing Top1-DNA Cleavage Complexes” (Journal of Medicinal Chemistry, 2017).
Blank lines part the entries; values can stand above or below the molecule they belong to. Peptide text beside a SMILES is read from it. * marks the point of attachment. Cbz = O=C(OCc1ccccc1)*

Key:
[1] = target: T1, EGFP-human Top1 in MCF7 cells (Homo sapiens, UniProt P11387); experiment: FRAP of EGFP-Top1 in live MCF7 cells; assay type: cell-based; conditions: 5 μM, 10 min
T1 construct: expressed in transfected cells; host or cells: MCF7 cells, transient transfection (Lipofectamine 2000)
T1 sequence (P11387 1-765): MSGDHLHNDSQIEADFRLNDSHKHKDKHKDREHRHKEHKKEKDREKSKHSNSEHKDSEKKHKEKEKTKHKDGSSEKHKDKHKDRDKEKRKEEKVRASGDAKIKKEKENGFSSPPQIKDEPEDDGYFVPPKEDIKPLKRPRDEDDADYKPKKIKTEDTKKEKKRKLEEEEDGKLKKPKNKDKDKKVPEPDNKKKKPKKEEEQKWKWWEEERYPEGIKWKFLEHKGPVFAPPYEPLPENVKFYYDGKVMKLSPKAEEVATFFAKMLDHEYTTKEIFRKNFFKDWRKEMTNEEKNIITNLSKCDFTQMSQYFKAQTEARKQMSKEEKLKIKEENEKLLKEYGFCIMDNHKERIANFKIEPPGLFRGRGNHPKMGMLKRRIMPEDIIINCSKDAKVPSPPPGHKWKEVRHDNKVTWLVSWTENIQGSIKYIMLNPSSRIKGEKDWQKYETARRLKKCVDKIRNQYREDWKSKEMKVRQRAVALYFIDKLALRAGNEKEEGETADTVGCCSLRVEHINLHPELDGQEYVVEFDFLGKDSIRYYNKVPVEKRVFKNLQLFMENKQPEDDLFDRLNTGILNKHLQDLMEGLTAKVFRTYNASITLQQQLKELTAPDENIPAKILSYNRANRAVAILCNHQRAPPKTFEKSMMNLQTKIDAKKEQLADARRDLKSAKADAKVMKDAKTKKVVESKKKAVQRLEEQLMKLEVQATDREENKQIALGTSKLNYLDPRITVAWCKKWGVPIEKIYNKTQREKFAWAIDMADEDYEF
Description: To obtain direct evidence for compound 8 mediated inhibition of Top1cc formation in live human carcinoma cells, we used MCF7 cells and transiently expressed EGFP-Top1. Live cells expressing ectopic Top1 were analyzed under laser confocal microscopy equipped with fluorescence recovery after photobleaching (FRAP) technology.[40]−[42]
Photobleaching experiments were performed as described formerly[40]−[42] using Andor Spining disk inverted confocal laser-scanning microscope equipped with a 60×/1.42 NA oil-immersion objective (Olympus) and with a CO2-controlled on-stage heated environmental chamber set to 37 °C. FRAP analyses were carried out with living MCF7 cells ectopically expressing EGFP-human Top1 grown on chamber cover glass (Genetix, India) and drug treated as indicated. For FRAP analysis, a subnuclear spot was bleached for 30 ms by solid-state laser line (488 nm for EGFP) adapted to the fluorescent protein of interest and FRAP curves were generated individually normalized to the prebleach signal as described previously.[42]

[2] = target: T2, cellular Top1 in MCF7 cells (Homo sapiens, UniProt P11387); experiment: Western blot of Top1 in whole cell extracts of treated MCF7 cells; assay type: cell-based; conditions: MG132 100 nM preincubated 4 h, then compound 8 10 μM 12 h
T2 construct: endogenous in cells; host or cells: MCF7 cells
T2 sequence (P11387 2-765 limits assumed): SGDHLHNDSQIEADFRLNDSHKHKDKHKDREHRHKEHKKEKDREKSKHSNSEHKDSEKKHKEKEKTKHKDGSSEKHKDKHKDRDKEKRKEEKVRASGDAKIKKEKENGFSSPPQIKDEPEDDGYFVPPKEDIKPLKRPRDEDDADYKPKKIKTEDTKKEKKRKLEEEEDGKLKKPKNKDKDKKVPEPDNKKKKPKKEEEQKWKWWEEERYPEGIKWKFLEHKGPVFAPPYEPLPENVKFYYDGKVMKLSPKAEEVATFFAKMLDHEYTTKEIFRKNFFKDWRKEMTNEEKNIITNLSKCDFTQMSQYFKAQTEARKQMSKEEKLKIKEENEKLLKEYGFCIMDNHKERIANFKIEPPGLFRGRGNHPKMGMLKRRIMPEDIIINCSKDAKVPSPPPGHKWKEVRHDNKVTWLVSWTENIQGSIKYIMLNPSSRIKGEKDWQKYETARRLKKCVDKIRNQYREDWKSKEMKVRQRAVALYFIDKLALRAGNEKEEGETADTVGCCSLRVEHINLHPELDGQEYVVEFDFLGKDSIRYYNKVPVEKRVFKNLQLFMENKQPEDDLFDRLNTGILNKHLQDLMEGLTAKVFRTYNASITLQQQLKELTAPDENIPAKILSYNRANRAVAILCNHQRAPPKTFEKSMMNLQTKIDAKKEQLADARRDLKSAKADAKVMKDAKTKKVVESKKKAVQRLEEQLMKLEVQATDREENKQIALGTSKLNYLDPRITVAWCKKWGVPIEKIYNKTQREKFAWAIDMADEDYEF
Description: Because compound 8 binds with free Top1 (Figure 3) and inhibits Top1cc formation in live cells (Figure 2E), we examined the impact of compound 8 on endogenous Top1. Cellular lysates were prepared from MCF7 cells treated with compound 8 for indicated times and were analyzed by Western blotting. […] Because proteasome has been implicated for Top1 degradation,[7],[9],[45] we used proteasome specific inhibitor (MG132) to investigate Top1 proteolysis in compound 8 treated cells.
Preparation of whole cell extracts from MCF7 cells and immunoblotting were carried out as described.[6],[40],[41] Immunoreactivity was detected using ECL chemiluminescence reaction (Amersham) under ChemiDoc MP system (Bio-Rad, USA).

MCF7 cells [3] = experiment: Alkaline comet assay; assay type: cell-based, human; conditions: NAC 10 mM pretreatment 30 min before compound 8
Source text: Therefore, we directly measured compound 8 induced DNA strand breaks at single cellular level by using alkaline comet assays (Figure 5B,C) and simultaneously measured the apoptotic cell death by immunofluorescence staining of the apoptosis marker phosphatidylserine with annexin V-FITC antibody (Figure 5D,E). Compound 8 treated MCF7 cells accumulate ∼8-fold increase in DNA strand breaks (Figure 5B and Figure 5C) compared to untreated cells, resulting in ∼7-fold elevation in compound 8 induced annexin V(+) apoptotic cells (Figure 5D and Figure 5E). […] Therefore, we conclude that compound 8 triggers reactive oxygen species induced DNA degradation and apoptotic cell death without stabilizing Top1-DNA cleavage complexes.
To detect the levels of drug-induced DNA breaks, after treatment MCF7 cells were subjected to alkaline comet assays according to the manufacturer’s instructions (Trevigen, USA) and comet length was measured and was scored for at least 50 cells. Distributions of comet lengths were compared using the Student’s t-test as described previously.[13],[40],[50]

MCF7 cells [4] = experiment: Measurement of intracellular ROS (H2DCFDA); assay type: cell-based, human; conditions: NAC 10 mM pretreatment 30 min before compound 8 10 μM
Source text: Next, to investigate the mechanistic link between compound 8 induced cellular Top1 inhibition (Figure 1), degradation (Figure 4A and Figure 4B), and activation of apoptosis (Figure 4C), we tested reactive oxygen species (ROS) formation and accumulation of oxidative DNA fragmentation[15],[17],[46] in compound 8 treated MCF7 cells. […] We observed a marked elevation (∼3- to 5-fold) in ROS accumulation (Figure 5A) under similar conditions that activate PARP1 cleavage (Figure 4C). Nonetheless, MCF7 cells pretreated with N-acetylcysteine (NAC), a specific inhibitor of ROS, reduced compound 8 induced ROS generation by ∼3-fold (Figure 5A).
Intracellular ROS was detected in drug-treated MCF7 cells with or without pretreatment of N-acetyl-L-cysteine (NAC) for indicated time as described.[13],[46] Briefly, cells were washed and resuspended in 500 μL of 1× PBS and were loaded with 2 μg/mL of H2DCFDA (Molecular Probes) for 30 min, and green fluorescence of 2,7-dichlorofluorescein was measured at 515 nm by spectrofluorometer.

[5] = system: relaxed pBS (SK+) plasmid DNA; experiment: Topoisomerase I unwinding assay (DNA intercalation); conditions: m-AMSA and etoposide 50 and 300 μM; compound 8 50, 100, 300 μM
Description: Therefore, compound 8 interacts in reversible manner with Top1 to inhibit the plasmid relaxation activity (Figure 1).
The competence of the drug to intercalate into plasmid DNA was determined by Top1 unwinding assay.[36],[44] Assays were performed with 50 fmol of pBluscript (SK+) DNA in the presence or absence of compound 8, m-AMSA, and etoposide at indicated concentrations. Excess of DNA topoisomerase I was reacted with supercoiled plasmid DNA to generate relaxed DNA for the unwinding assays. The relaxed DNA was purified by proteolytic digestion with proteinase K at 37 °C, followed by phenol/chloroform extraction and ethanol precipitation. The unwinding assays were carried out at 37 °C for 15 min with independent compounds and were analyzed by 1% agarose gel as described above.

SMILES: CC[C@@]1(O)C(=O)OCc2c1cc1n(c2=O)Cc2cc3ccccc3nc2-1 [CPT, Camptothecin, reference compound]
Increase of Top1 immobile population (FRAP) [1]: 40–50%

SMILES: CC(C)C[C@@H](C=O)NC(=O)[C@H](CC(C)C)NC(=O)[C@H](CC(C)C)NC(=O)OCc1ccccc1 [MG132, reference compound] (Cbz-Leu-Leu-Leu-aldehyde)
Effect on 8-induced degradation of Top1 [2]: abrogated

SMILES: CC(=O)N[C@@H](CS)C(=O)O [NAC, N-acetyl-L-cysteine]
Decrease in compound 8 induced DNA breaks (MCF7 cells [3]): ~4 fold | Reduction of compound 8 induced ROS generation (MCF7 cells [4]): ~3 fold

Negative supercoiling of relaxed plasmid DNA (intercalation) [5]: failed to show such effect
SMILES: COc1cc([C@@H]2c3cc4c(cc3[C@@H](O[C@@H]3O[C@@H]5CO[C@@H](C)O[C@H]5[C@H](O)[C@H]3O)[C@H]3COC(=O)[C@H]23)OCO4)cc(OC)c1O [etoposide]

SMILES: COc1cc(NS(C)(=O)=O)ccc1Nc1c2ccccc2nc2ccccc12 [m-AMSA]
Negative supercoiling of relaxed plasmid DNA (intercalation) [5]: incites a net negative supercoiling of the relaxed plasmid DNA
